This is an account of results in patent publication US9334267B2, “RAF inhibitor compounds” (Deciphera Pharmaceuticals, LLC, priority 2012, dated 2016).

Data set [1] has as its target T1, human B-Raf V600E (Homo sapiens, UniProt P15056, V600E).
T1 construct: B-RafV600E (residues 433-726 containing V600E mutation) containing an N-terminal purification tag is expressed and purified; made in house
Description: Enzymatic assay of B-Raf V600E kinase activity (Raf/MEK1 ATPase, coupled PK/LDH, A340). It counts as biochemical. The note with it: read-out: Enzyme IC50, nM B-Raf V600E.

Data set [2] addresses T2, human wild type c-KIT (Homo sapiens, UniProt P10721).
T2 construct: GST (N); made in house
Description: Enzymatic assay of c-Kit kinase activity (poly E4Y phosphorylation, coupled PK/LDH). It counts as biochemical. A digest of the protocol:
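Spectrophotometric PK/LDH-coupled assay tracking NADH absorbance at 340 nm from ADP formed as 6 nM human wild-type c-KIT phosphorylates 1 mg/mL poly(Glu,Tyr). Buffer: 85 mM Tris pH 7.5, 17 mM MgCl2, 1% DMSO. Compound preincubated 0.5 h; reaction started with 200 μM ATP at 30 °C.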

For data set [3], the system named is A375 cells. Description: A375 cell proliferation assay (CellTiter-Blue/resazurin). It counts as cell-based. The conditions noted are these: Homo sapiens, A-375, V600E mutation, read-out: Cell Proliferation Inhibition IC50, nM A375.
Data set [4] concerns A375res cells.
Data set [5] concerns A375res cells. Description: Proliferation assay in vemurafenib-resistant melanoma cells A375res. The conditions noted are these: Homo sapiens, 72 h, read-out: absolute IC50 values.

T2 sequence (P10721 26-976): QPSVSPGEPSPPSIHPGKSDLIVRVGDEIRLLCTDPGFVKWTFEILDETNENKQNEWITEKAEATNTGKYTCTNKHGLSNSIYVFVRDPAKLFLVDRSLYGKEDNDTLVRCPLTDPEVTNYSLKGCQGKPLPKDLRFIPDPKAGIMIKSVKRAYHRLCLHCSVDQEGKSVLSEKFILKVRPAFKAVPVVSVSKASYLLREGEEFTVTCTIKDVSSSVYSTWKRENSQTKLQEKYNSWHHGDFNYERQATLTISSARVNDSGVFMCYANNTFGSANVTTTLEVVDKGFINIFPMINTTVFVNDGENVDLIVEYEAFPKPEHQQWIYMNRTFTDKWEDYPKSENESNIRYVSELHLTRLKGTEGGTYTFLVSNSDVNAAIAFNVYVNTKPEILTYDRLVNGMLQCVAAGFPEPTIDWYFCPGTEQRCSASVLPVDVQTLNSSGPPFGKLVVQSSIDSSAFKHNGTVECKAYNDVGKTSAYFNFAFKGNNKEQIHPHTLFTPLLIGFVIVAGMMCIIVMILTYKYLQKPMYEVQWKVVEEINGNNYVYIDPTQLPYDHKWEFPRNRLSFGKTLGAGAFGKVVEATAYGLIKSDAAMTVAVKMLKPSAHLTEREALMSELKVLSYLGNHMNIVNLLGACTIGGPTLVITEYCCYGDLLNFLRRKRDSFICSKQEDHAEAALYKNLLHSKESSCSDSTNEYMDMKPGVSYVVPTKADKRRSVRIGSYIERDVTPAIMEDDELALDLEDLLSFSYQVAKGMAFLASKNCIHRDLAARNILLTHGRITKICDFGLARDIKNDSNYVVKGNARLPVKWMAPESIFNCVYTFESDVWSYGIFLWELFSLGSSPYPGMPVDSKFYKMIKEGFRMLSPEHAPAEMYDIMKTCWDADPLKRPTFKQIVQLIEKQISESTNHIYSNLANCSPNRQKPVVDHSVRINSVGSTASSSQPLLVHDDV
T1 sequence (P15056 433-726 V600E): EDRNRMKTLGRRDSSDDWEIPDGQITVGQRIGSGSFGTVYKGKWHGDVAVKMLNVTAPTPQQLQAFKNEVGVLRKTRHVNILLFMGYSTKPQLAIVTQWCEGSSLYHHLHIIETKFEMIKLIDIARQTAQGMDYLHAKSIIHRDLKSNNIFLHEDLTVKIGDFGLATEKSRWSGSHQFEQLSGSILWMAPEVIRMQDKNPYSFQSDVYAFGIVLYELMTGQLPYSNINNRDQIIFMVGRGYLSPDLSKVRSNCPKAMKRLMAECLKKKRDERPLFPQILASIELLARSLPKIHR

As to `CNc1ncc2cc(-c3cc(NC(=O)NCCC(C)(C)C)c(F)cc3C)cnc2n1` [Example 35, 1-(3,3-Dimethylbutyl)-3-[2-fluoro-4-methyl-5-(2-methylaminopyrido[2,3-d]pyrimidin-6-yl)phenyl]urea], the IC50 in data set [1] was < 150 nM; in data set [2] it was < 0.15 µM; in data set [3], < 100 nM; in data set [5], 0.015 to 1.1 µM. The “IC50 shift A375 to A375res” value in data set [4] is given as 0.6-1.9 fold.
